The text below walks through data of patent publication US20240158370A1, “CK1 alpha AND DUAL CK1 alpha / GSPT1 DEGRADING COMPOUNDS” (Innovo Therapeutics, Inc., priority 2022, published 2024).

In test [1] the target is GSPT1 (Homo sapiens, UniProt P15170+Q96SW2). Put plainly: HiBiT degradation assay, GSPT1, Procedure A. It is filed as cell-based. Set-up: HiBit-GSPT1 KI HEK293(LgBit) Cells; host or cells: HEK293(LgBit) knock-in cells. A digest of the protocol:
(§1)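 Cells in DMEM + 10% FBS were treated with compound in a ten-point dose response from 10 μM to 0.005 μM (0.1% DMSO) for six hours at 37° C. Lysis with Nano-Glo HiBiT detection reagent followed, with luminescence read. DC50 and Ymin came from a 4-parameter fit.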
A general note: HiBiT is a short tag that completes a luciferase, so light tracks the accessible tagged protein.

Test [2] addresses T1, CK1α (Homo sapiens, UniProt P48729+Q96SW2).
T1 construct: CSNK1A1-HiBit KI HEK293(LgBit) Cells; host or cells: HEK293(LgBit) knock-in cells
Put plainly: HiBiT degradation assay, CK1α, Procedure A. Format: cell-based. A digest of the protocol:
as §1

T1 sequence (P48729 whole entry): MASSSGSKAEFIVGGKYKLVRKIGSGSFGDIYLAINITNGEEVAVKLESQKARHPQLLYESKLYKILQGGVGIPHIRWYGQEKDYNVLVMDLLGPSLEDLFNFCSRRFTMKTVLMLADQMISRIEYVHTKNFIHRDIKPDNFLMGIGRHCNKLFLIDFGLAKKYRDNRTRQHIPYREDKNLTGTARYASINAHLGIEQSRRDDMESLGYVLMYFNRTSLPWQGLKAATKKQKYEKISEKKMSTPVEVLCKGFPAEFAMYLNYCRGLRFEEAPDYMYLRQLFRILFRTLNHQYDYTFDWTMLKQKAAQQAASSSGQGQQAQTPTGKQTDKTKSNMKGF
T1 sequence (Q96SW2 whole entry): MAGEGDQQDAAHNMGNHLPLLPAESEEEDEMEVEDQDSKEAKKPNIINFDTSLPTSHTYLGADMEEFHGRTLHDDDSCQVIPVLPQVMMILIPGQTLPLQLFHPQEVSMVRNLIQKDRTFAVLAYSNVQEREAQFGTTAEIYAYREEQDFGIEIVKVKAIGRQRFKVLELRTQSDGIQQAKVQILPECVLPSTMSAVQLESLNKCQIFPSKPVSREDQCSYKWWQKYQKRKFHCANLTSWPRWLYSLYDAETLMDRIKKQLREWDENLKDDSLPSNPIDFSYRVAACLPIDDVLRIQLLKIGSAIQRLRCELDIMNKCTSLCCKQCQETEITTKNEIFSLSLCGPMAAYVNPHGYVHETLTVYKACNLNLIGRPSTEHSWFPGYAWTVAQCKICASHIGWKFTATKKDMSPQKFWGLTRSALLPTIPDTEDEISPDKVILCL
T1 sequence (Q16531 whole entry partner): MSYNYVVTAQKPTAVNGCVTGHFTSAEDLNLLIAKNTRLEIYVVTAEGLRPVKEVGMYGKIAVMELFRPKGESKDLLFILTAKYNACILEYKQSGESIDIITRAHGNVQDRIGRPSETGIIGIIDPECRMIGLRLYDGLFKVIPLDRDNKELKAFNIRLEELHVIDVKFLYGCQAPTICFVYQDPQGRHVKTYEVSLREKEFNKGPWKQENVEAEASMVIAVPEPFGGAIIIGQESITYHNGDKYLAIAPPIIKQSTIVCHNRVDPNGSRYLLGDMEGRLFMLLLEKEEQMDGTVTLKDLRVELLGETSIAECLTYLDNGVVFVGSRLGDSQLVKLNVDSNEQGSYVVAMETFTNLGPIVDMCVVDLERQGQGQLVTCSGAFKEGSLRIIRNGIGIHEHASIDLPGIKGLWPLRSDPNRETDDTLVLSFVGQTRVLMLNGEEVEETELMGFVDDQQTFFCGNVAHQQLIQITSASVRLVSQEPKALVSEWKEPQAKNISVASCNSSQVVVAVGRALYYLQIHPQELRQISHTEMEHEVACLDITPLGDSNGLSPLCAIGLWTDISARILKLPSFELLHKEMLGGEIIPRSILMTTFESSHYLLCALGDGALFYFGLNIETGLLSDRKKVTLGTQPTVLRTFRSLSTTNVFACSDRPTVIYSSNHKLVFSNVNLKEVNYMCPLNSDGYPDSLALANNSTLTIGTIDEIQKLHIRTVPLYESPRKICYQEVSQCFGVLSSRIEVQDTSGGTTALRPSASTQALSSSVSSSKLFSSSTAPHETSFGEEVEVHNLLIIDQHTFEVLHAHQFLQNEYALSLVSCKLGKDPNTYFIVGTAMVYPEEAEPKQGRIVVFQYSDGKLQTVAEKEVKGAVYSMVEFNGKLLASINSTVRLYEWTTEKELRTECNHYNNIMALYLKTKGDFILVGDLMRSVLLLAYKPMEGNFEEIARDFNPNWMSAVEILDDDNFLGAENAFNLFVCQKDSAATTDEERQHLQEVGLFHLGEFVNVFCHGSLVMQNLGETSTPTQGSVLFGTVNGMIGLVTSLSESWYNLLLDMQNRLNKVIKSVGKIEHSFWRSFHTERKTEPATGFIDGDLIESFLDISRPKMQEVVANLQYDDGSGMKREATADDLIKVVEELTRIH
Chain of GSPT1 (P15170 whole entry): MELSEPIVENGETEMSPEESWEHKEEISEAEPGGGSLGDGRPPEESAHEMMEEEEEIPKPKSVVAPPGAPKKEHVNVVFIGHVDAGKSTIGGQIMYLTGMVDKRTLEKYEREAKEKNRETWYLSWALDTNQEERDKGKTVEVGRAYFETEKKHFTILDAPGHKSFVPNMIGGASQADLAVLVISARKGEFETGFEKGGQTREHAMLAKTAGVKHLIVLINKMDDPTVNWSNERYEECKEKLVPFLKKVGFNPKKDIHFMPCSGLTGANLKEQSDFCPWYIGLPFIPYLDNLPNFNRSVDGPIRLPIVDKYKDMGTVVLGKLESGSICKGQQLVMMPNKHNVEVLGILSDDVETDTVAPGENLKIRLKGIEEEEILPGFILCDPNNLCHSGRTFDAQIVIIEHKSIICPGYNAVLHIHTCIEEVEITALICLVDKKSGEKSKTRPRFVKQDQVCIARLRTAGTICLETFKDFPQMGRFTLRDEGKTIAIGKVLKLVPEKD
Chain of GSPT1 (Q96SW2 whole entry): as the sequence (Q96SW2 whole entry) above
Chain of GSPT1 (Q16531 whole entry partner): as the sequence (Q16531 whole entry partner) above

One may read the DC50 as the concentration giving 50% degradation. Low values mean degradation at low concentration, high ones degradation only at high concentration. `Cn1ncc(-c2ccc3c(c2)CN(C2CCC(=O)NC2=O)C3=O)c1-c1cccc2c1CCC2` (stereo not shown) [Example 114]: in test [1] (six hours incubation), the DC50 is at least 25 nM and the “GSPT1 Ymin” value was “F (F = >75-100% remaining)”. For the same compound, in test [2] (six hours incubation), the “CK1α Ymin” value is “E (E = >25-75% remaining)” and the DC50 is under 25 nM.
Consider `Cn1cnc(-c2ccc3c(c2)CN(C2CCC(=O)NC2=O)C3=O)c1-c1cccc(C(F)(F)F)c1` (stereo not shown) [Example 280], for which, in test [1] (six hours incubation), the DC50 was at least 25 nM and the “GSPT1 Ymin” value was “F (F = >75-100% remaining)”. Also, in test [2] (six hours incubation), the “CK1α Ymin” value is given as “E (E = >25-75% remaining)” and the DC50 is under 25 nM.
Take `Cc1cc(F)ccc1-c1nc(-c2ccc3c(c2)CN(C2CCC(=O)NC2=O)C3=O)cn1C` (stereo not shown) [Example 560]: in test [1] (six hours), the DC50 was under 25 nM and the “GSPT1 Ymin” value is listed as “F (F = >75-100% remaining)”. Besides, in test [2] (six hours), the “CK1α Ymin” value is listed as “C (C = 0-10% remaining)” and the DC50 was under 25 nM.
For `Cn1c(-c2ccc3c(c2)CN(C2CCC(=O)NC2=O)C3=O)cnc1-c1ccccc1` (stereo not shown) [Example 28, 3-(5-(1-methyl-2-phenyl-1H-imidazol-5-yl)-1-oxoisoindolin-2-yl)piperidine-2,6-dione], in test [1] (six hours incubation), the 50% degradation concentration (DC50) was at least 25 nM and the “GSPT1 Ymin” value is “F (F = >75-100% remaining)”. Further, in test [2] (six hours incubation), the “CK1α Ymin” value is on record as “E (E = >25-75% remaining)” and the 50% degradation concentration (DC50) is at least 25 nM.
For `[2H]C([2H])([2H])n1ncc(-c2ccc3c(c2)CN(C2CCC(=O)NC2=O)C3=O)c1-c1ccc(OC(F)(F)F)cc1` (stereo not shown) [Example 435, 3-(5-(1-(methyl-d3)-5-(4-(trifluoromethoxy)phenyl)-1H-pyrazol-4-yl)-1-oxoisoindolin-2-yl) piperidine-2,6-dione], in test [1] (six hours), the DC50 is under 25 nM and the “GSPT1 Ymin” value was “F (F = >75-100% remaining)”. In test [2] (six hours), the “CK1α Ymin” value is “E (E = >25-75% remaining)” and the DC50 is under 25 nM.
`Cn1cnc(-c2ccc3c(c2)CN(C2CCC(=O)NC2=O)C3=O)c1-c1ccc2nccnc2c1` (stereo not shown) [Example 494]: in test [1] (six hours), the DC50 was at least 25 nM and the “GSPT1 Ymin” value was “F (F = >75-100% remaining)”. Further, in test [2] (six hours), the “CK1α Ymin” value is reported as “E (E = >25-75% remaining)” and the DC50 was at least 25 nM.
Turning to `Cc1cc(-c2c(-c3ccc4c(c3)CN(C3CCC(=O)NC3=O)C4=O)ncn2C)ccc1F` (stereo not shown) [Example 238], in test [1] (six hours incubation), the DC50 is at least 25 nM and the “GSPT1 Ymin” value was “F (F = >75-100% remaining)”. In test [2] (six hours incubation), the “CK1α Ymin” value was “D (D = >10- 25% remaining)” and the DC50 was under 25 nM.
With `O=C1CCC(N2Cc3cc(-c4cnn(CC(F)F)c4-c4ccccc4)ccc3C2=O)C(=O)N1` (stereo not shown) [Example 430, 3-(5-(1-(2,2-difluoroethyl)-5-phenyl-1H-pyrazol-4-yl)-1-oxoisoindolin-2-yl)piperidine-2,6-dione], in test [1] (six hours), the DC50 was at least 25 nM and the “GSPT1 Ymin” value is “F (F = >75-100% remaining)”. Also, in test [2] (six hours), the “CK1α Ymin” value was “D (D = >10- 25% remaining)” and the DC50 is under 25 nM.
Take `Cn1ncc(-c2ccc3c(c2)CN(C2CCC(=O)NC2=O)C3=O)c1-c1ccc(Oc2cccnc2)cc1` (stereo not shown) [Example 133]: in test [1] (six hours incubation), the DC50 was at least 25 nM and the “GSPT1 Ymin” value was “F (F = >75-100% remaining)”. For the same compound, in test [2] (six hours incubation), the “CK1α Ymin” value was “E (E = >25-75% remaining)” and the DC50 was at least 25 nM.
As to `COc1ccncc1-c1c(-c2ccc3c(c2)CN(C2CCC(=O)NC2=O)C3=O)cnn1C` (stereo not shown) [Example 458], in test [1] (six hours), the DC50 is under 25 nM and the “GSPT1 Ymin” value is “F (F = >75-100% remaining)”. For the same compound, in test [2] (six hours), the “CK1α Ymin” value is reported as “F (F = >75-100% remaining)” and the DC50 was under 25 nM.
For `Cn1ncc(-c2ccc3c(c2)CN(C2CCC(=O)NC2=O)C3=O)c1-c1ccc(Cl)cc1Cl` (stereo not shown) [Example 148], in test [1] (six hours incubation), the half-maximal degradation concentration (DC50) is under 25 nM and the “GSPT1 Ymin” value is on record as “F (F = >75-100% remaining)”. For the same compound, in test [2] (six hours incubation), the “CK1α Ymin” value is recorded as “E (E = >25-75% remaining)” and the DC50 is under 25 nM.
For the compound `CN(C)C(=O)c1ccc(-c2c(-c3ccc4c(c3)CN(C3CCC(=O)NC3=O)C4=O)ncn2C)cc1` (stereo not shown) [Example 289], in test [1] (six hours incubation), the DC50 was at least 25 nM and the “GSPT1 Ymin” value is “F (F = >75-100% remaining)”. For the same compound, in test [2] (six hours incubation), the “CK1α Ymin” value is “C (C = 0-10% remaining)” and the DC50 was at least 25 nM.
`Cc1ccc(-c2c(-c3ccc4c(c3)CN(C3CCC(=O)NC3=O)C4=O)cnn2C)s1` (stereo not shown) [Example 215]: in test [1] (six hours incubation), the half-maximal degradation concentration (DC50) was at least 25 nM and the “GSPT1 Ymin” value is given as “F (F = >75-100% remaining)”. Moreover, in test [2] (six hours incubation), the “CK1α Ymin” value was “D (D = >10- 25% remaining)” and the DC50 was under 25 nM.
On to `Cn1c(C2CCOCC2)nc(-c2ccc3c(c2)CN(C2CCC(=O)NC2=O)C3=O)c1-c1cccnc1` (stereo not shown) [Example 420, 3-(5-(1-methyl-5-(pyridin-3-yl)-2-(tetrahydro-2H-pyran-4-yl)-1H-imidazol-4-yl)-1-oxoisoindolin-2-yl)piperidine-2,6-dione], for which, in test [1] (six hours), the DC50 is at least 25 nM and the “GSPT1 Ymin” value was “F (F = >75-100% remaining)”. Further, in test [2] (six hours), the “CK1α Ymin” value is on record as “C (C = 0-10% remaining)” and the DC50 is under 25 nM.
On to `Cn1cnc(-c2ccc3c(c2)CN(C2CCC(=O)NC2=O)C3=O)c1-c1ccc(-c2ccncc2)cc1` (stereo not shown) [Example 305], for which, in test [1] (six hours incubation), the DC50 is under 25 nM and the “GSPT1 Ymin” value is on record as “F (F = >75-100% remaining)”. In addition, in test [2] (six hours incubation), the “CK1α Ymin” value is on record as “C (C = 0-10% remaining)” and the DC50 is under 25 nM.
Take `Cn1cnc(-c2ccc3c(c2)CN(C2CCC(=O)NC2=O)C3=O)c1-c1ccc(C2(C#N)CC2)cc1` (stereo not shown) [Example 279]: in test [1] (six hours incubation), the DC50 is at least 25 nM and the “GSPT1 Ymin” value is listed as “F (F = >75-100% remaining)”. In test [2] (six hours incubation), the “CK1α Ymin” value is on record as “D (D = >10- 25% remaining)” and the DC50 is under 25 nM.
In the same order, the values of `Cn1ncc(-c2ccc3c(c2)CN(C2CCC(=O)NC2=O)C3=O)c1-c1cc(Cl)ccc1F` (stereo not shown) [Example 93] are at least 25 nM, “F (F = >75-100% remaining)”, “E (E = >25-75% remaining)” and at least 25 nM.
In the same order, the values of `Cn1ncc(-c2ccc3c(c2)CN(C2CCC(=O)NC2=O)C3=O)c1-c1ccc(F)c(C#N)c1` (stereo not shown) [Example 58] are at least 25 nM, “F (F = >75-100% remaining)”, “E (E = >25-75% remaining)” and at least 25 nM.
The like results for `Cc1cc(-c2c(-c3ccc4c(c3)CN(C3CCC(=O)NC3=O)C4=O)cnn2C)ccc1Cl` (stereo not shown) [Example 99] were, in that order, at least 25 nM, “F (F = >75-100% remaining)”, “E (E = >25-75% remaining)” and under 25 nM.
For `COc1ccc(-c2c(-c3ccc4c(c3)CN(C3CCC(=O)NC3=O)C4=O)ncn2C)c(F)c1` (stereo not shown) [Example 189], in test [1] (six hours incubation), the half-maximal degradation concentration (DC50) is under 25 nM and the “GSPT1 Ymin” value is listed as “E (E = >25-75% remaining)”. Moreover, in test [2] (six hours incubation), the “CK1α Ymin” value is “C (C = 0-10% remaining)” and the DC50 was under 25 nM.
Take `CC(C)c1ccc(-c2c(-c3ccc4c(c3)CN(C3CCC(=O)NC3=O)C4=O)cnn2C)cc1` (stereo not shown) [Example 84]: in test [1] (six hours incubation), the DC50 was at least 25 nM and the “GSPT1 Ymin” value is reported as “F (F = >75-100% remaining)”. Further, in test [2] (six hours incubation), the “CK1α Ymin” value was “E (E = >25-75% remaining)” and the DC50 was under 25 nM.
Regarding `Cn1nc(-c2ccc3c(c2)CN(C2CCC(=O)NC2=O)C3=O)nc1N1CCC2(CC1)CC2` (stereo not shown) [Example 608, 3-(5-(1-methyl-5-(6-azaspiro[2.5]octan-6-yl)-1H-1,2,4-triazol-3-yl)-1-oxoisoindolin-2-yl)piperidine-2,6-dione], in test [1] (six hours), the 50% degradation concentration (DC50) was at least 25 nM and the “GSPT1 Ymin” value is reported as “F (F = >75-100% remaining)”. Besides, in test [2] (six hours), the “CK1α Ymin” value is recorded as “D (D = >10- 25% remaining)” and the DC50 was under 25 nM.
For `Cn1cnc(-c2ccc3c(c2)CN(C2CCC(=O)NC2=O)C3=O)c1-c1cccc(F)c1F` (stereo not shown) [Example 242], in test [1] (six hours incubation), the DC50 was under 25 nM and the “GSPT1 Ymin” value is recorded as “F (F = >75-100% remaining)”. In test [2] (six hours incubation), the “CK1α Ymin” value is on record as “D (D = >10- 25% remaining)” and the DC50 is under 25 nM.
Turning to `Cn1ncc(-c2ccc3c(c2)CN(C2CCC(=O)NC2=O)C3=O)c1-c1cc(F)ccc1F` (stereo not shown) [Example 77], in test [1] (six hours incubation), the DC50 is at least 25 nM and the “GSPT1 Ymin” value is listed as “F (F = >75-100% remaining)”. For the same compound, in test [2] (six hours incubation), the “CK1α Ymin” value was “E (E = >25-75% remaining)” and the DC50 is under 25 nM.
In the case of `CC(C)Cn1cc(-c2c(-c3ccc4c(c3)CN(C3CCC(=O)NC3=O)C4=O)ncn2C)cn1` (stereo not shown) [Example 491], in test [1] (six hours), the DC50 is at least 25 nM and the “GSPT1 Ymin” value was “E (E = >25-75% remaining)”. Moreover, in test [2] (six hours), the “CK1α Ymin” value is recorded as “D (D = >10- 25% remaining)” and the DC50 was under 25 nM.
Consider `CC(C)n1ncc(-c2ccc3c(c2)CN(C2CCC(=O)NC2=O)C3=O)c1-c1ccccc1` (stereo not shown) [Example 426, 3-(5-(1-isopropyl-5-phenyl-1H-pyrazol-4-yl)-1-oxoisoindolin-2-yl)piperidine-2,6-dione], for which, in test [1] (six hours), the DC50 is at least 25 nM and the “GSPT1 Ymin” value is recorded as “F (F = >75-100% remaining)”. For the same compound, in test [2] (six hours), the “CK1α Ymin” value is “D (D = >10- 25% remaining)” and the DC50 was under 25 nM.
With `CNC(=O)c1ccc(-c2c(-c3ccc4c(c3)CN(C3CCC(=O)NC3=O)C4=O)cnn2C)cc1` (stereo not shown) [Example 56], in test [1] (six hours incubation), the DC50 was at least 25 nM and the “GSPT1 Ymin” value is reported as “F (F = >75-100% remaining)”. Further, in test [2] (six hours incubation), the “CK1α Ymin” value is “D (D = >10- 25% remaining)” and the DC50 was at least 25 nM.
Take `Cn1ncc(-c2ccc3c(c2)CN(C2CCC(=O)NC2=O)C3=O)c1-c1cnc2c(ccn2C)c1` (stereo not shown) [Example 390]: in test [1] (six hours), the DC50 was at least 25 nM and the “GSPT1 Ymin” value is recorded as “F (F = >75-100% remaining)”. In test [2] (six hours), the “CK1α Ymin” value is listed as “F (F = >75-100% remaining)” and the DC50 is under 25 nM.
